In patent US6890955B2, “Aryloxypropanolamine derivatives, method of preparation and applications thereof” (Virbac SA, priority 1996, dated 2005):

**Q.** Which melting point does the source give for `Oc1cccc(OCC(O)CNCc2ccc3c(c2)OCO3)c1` (stereo not shown) [Compound 1e, N-((1,3-Benzodioxol-5-yl)methyl)-2-hydroxy-3-(3-hydroxyphenoxy)propylamine] here?
**A.** 230 to 231 °C
